The subject of data set [1] is S. aureus. Put plainly: In vitro MIC, serial two-fold agar dilution, primary evaluation Gp (S. aureus, 6 strains). The following applies: CBPC = 100%; geometric mean of MICs; Mueller-Hinton agar. It is filed as cell-based. Put shortly: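 Two-fold serial agar dilution on Mueller-Hinton agar (Steers' replicator); GP group is 6 S. aureus strains. Values are relative activity versus carbenicillin (set at 100%), calculated from the geometric mean of the group's MICs.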

In data set [2] the test system is E. coli (9), Klebsiella sp. (2), Pr. mirabilis (1), Sal. enteritidis (1). Put plainly: In vitro MIC, serial two-fold agar dilution, primary evaluation Gn-I (E. coli, Klebsiella sp., Pr. mirabilis, Sal. enteritidis). It counts as cell-based. The note with it: CBPC = 100%; geometric mean of MICs; Mueller-Hinton agar. An outline of the steps:
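Two-fold serial agar dilution on Mueller-Hinton agar, inoculated with a Steers' replicator. Activity is expressed relative to carbenicillin set at 100%. Values are based on the geometric mean MIC per organism group.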

The subject of data set [3] is Ent. cloacae (3), Pr. vulgaris (1), Pr. morganii (1), S. marcescen (1). Put plainly: In vitro MIC, serial two-fold agar dilution, primary evaluation Gn-II (Ent. cloacae, Pr. vulgaris, Pr. morganii, S. marcescens). It counts as cell-based. The note with it: CBPC = 100%; geometric mean of MICs; Mueller-Hinton agar. An outline of the steps: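 MICs by two-fold serial agar dilution on Mueller-Hinton agar with a Steers replicator. Reported as activity relative to carbenicillin set at 100%, computed from geometric mean MICs over the strains in each group.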
For orientation: In agar dilution the substance is mixed into plates at graded concentrations.

Data set [4] concerns Ps. aeruginosa. The data set is described as follows: In vitro MIC, serial two-fold agar dilution, primary evaluation Ps (6 strains). It counts as cell-based. The following applies: CBPC = 100%; geometric mean of MICs; Mueller-Hinton agar. Put shortly: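 MIC by serial two-fold agar dilution on Mueller-Hinton agar (Steers' apparatus) against 6 Pseudomonas aeruginosa strains in primary screening. Values expressed as relative activity versus carbenicillin set at 100%, based on geometric mean MIC.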

In data set [5] the test system is Pseudomonas aeruginosa. Put plainly: In vitro MIC, serial two-fold agar dilution, secondary evaluation against Pseudomonas aeruginosa strains. It is filed as cell-based. The note with it: CBPC = 100%; geometric mean of MICs; 61-64 strains. Put shortly: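 Two-fold serial agar dilution on Mueller-Hinton agar (Steers' apparatus) against 64 P. aeruginosa strains. Values are relative activity versus carbenicillin set at 100%, based on geometric mean MICs.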

Data set [6] deals with Staphylococcus aureus Smith. The data set is described as follows: In vivo efficacy, experimental infection in mice, intramuscular treatment, Staphylococcus aureus Smith. The note with it: im, 120 h, I.M., 100×LD50 challenge i.p., 5 days, read-out: PD50 Staphylococcus aureus Smith. Also noted: species or system Staphylococcus aureus (infected mice). On the procedure: (§1) The in vivo efficacy was evaluated by intramuscular treatment against three kinds of experimental infection in mice.
(§2) The in vivo tests were carried out using the following three pathogenic organisms:
Staphylococcus aureus Smith
(§3) Mice were challenged intraperitoneally with approximately a 100×LD50 dose of the pathogens in a 5% mucin suspension. The mice were treated with test compound by I.M. route immediately after the bacterial challenge.

Data set [7] relates to Pseudomonas aeruginosa A9843. Put plainly: In vivo efficacy, experimental infection in mice, intramuscular treatment, Pseudomonas aeruginosa A9843. Also noted: species or system Pseudomonas aeruginosa (infected mice). The note with it: A9843, im, 120 h, I.M., 100×LD50 challenge i.p., 5 days, read-out: PD50 Pseudomonas aeruginosa A9843. On the procedure:
as §1, §2
Pseudomonas aeruginosa A9843
as §3

The nature of data set [8]: Antibiotic blood levels in mice following intramuscular administration (paper disc-agar diffusion, Escherichia coli NIHJ as assay organism). The following applies: mouse, im, I.M., 20 mg./kg. It counts as in vivo. On the procedure: Antibiotic blood levels were determined in mice following intramuscular administration of the test compounds at 20 mg./kg. The blood samples were collected from the orbital sinuses into heparinized capillary tubes at 15, 30, 60 and 120 minutes after administration. The antibiotic concentration was determined by the paper disc-agar diffusion method using Escherichia coli NIHJ as the assay organism.
For orientation: A growth-free zone around the sample is the usual read-out of agar diffusion tests.

A short description of data set [9]: Solubility in water. It is filed as physicochemical. The note with it: lyophilized product, read-out: dissolved readily in water to give a solution. On the procedure: This unfortunate characteristic renders them unsuitable for use by intravenous administration. Acceptable solubility for such use is at least 125 mgm./ml. so that 250 mgm. can be administered in 2 ml. of sterile solution. Suspensions cannot, of course, be administered intravenously. […] The latter would make possible a dosage of 500 mgm. in a 2 ml. vial.
To a mixture of nicotinic acid (492 mg., 4 m.moles) and NaHCO3 (336 mg., 4 m.moles) in 2 ml. of water were added sodium 7-[D-α-(4-hydroxy-1,5-naphthyridine-3-carboxamido)-α-phenylacetamido]cephalosporanate^(3), (600 mg., 1 m.mole) and KSCN (2.4 g., 25 m.moles) and the mixture was allowed to stand overnight at 50°-52° C. The reaction mixture was placed on the top of an HP-20 column (.phi. 10 mm., 90 ml.). The column was developed with 1 L each of water, 30% aqueous MeOH and 50% aqueous MeOH. The eluate was collected in 20-ml. fractions, monitoring with tlc (silica-gel plate, CH3 CN:H2 O=4:1, detected with I2). The desired product was found in the fractions eluted with 30% aqueous MeOH, which were combined and concentrated under reduced pressure. The concentrates showing a neutral pH were lyophilized to give 105 mg. (16%) of BB-S606, which dissolved readily in water to give a 25% (w/v) solution. It started to melt around 280° C. with gradual decomposition.

As usually defined, the half-life is the time needed for the level to fall by half in the phase considered.

In brackets after ≈: the same amount, converted by molar mass.

Turning to `O=C([O-])C1=C(C[n+]2cccc(C(=O)O)c2)CSC2C(NC(=O)[C@H](NC(=O)c3cnc4cccnc4c3O)c3ccccc3)C(=O)N12` (stereo partly drawn) [BB-S606, 7-[D-α-(4-Hydroxy-1,5-naphthyridine-3-carboxamido)-α-phenyl-acetamido]-3-(3-carboxypyridinium)methyl-3-cephem-4-carboxylate], the “In vitro relative activity, primary evaluation Gp (6)” value in data set [1] is listed as 45%. The “In vitro relative activity, primary evaluation Gn-I (13)” value in [2] came to 16%. Also, in data set [3], the “In vitro relative activity, primary evaluation Gn-II (6)” value was 11%. In addition, the “In vitro relative activity, primary evaluation Ps (6)” value in data set [4] came out at 656%. The “In vitro relative activity, secondary, Pseudomonas aeruginosa (61-64)” value in data set [5] was found to be 624%. Besides, the results for the ED50 in data set [6] and in data set [7] were 4.2 mg/kg and 25 mg/kg, respectively. For the same compound, the half-life in data set [8] (read-out: Blood level, Half-life) came to 55 min. Further, the Cmax in data set [8] (read-out: Blood level, Peak Concentration) was determined as 11000 ng/mL. Also, the solubility in data set [9] turned out to be 250 mg/mL (≈ 390 mM).

Source of the values: patent US4198504A, “[3-(Pyridinium)-7-(naphthyiridinyl carbonylamino)acetamido]cephalosporanic acid derivatives” (Bristol-Myers Company, priority 1978, dated 1980).
